Some results are limits rather than exact numbers.

The target of assay [1] is S1P1 (membranes from S1P1/CHO cells) (Homo sapiens (Human), UniProt P21453). Put plainly: Receptor [35S] GTPγS Binding Assay, S1P1. The format is biochemical. The conditions noted are these: S1P1/CHO cell membranes; rounded to two digits. Here is the method: (§1) Receptor [35S] GTPγS Binding Assays
(§2) Compounds were loaded in a 384 Falcon v-bottom plate (0.5 μl/well in a 11 point, 3-fold dilution). Membranes prepared from S1P1/CHO cells or EDG3-Ga15-bla HEK293T cells were added to the compound plate (40 μl/well, final protein 3 μg/well) with multidrop. [^35S]GTP (1250 Ci/mmol, Perkin Elmer) was diluted in assay buffer: 20 mM HEPES, pH7.5, 10 mM MgCl2, 150 mM NaCl, 1 mM EGTA, 1 mM DTT, 10 μM GDP, 0.1% fatty acid free BSA, and 10 μg/ml Saponin to 0.4 nM. 40 μl of the [^35S] GTP solution was added to the compound plate with a final concentration of 0.2 nM. The reaction was kept at room temperature for 45 min. At the end of incubation, all the mixtures in the compound plate were transferred to Millipore 384-well FB filter plates via the Velocity11 Vprep liquid handler. The filter plate was washed with water 4 times by using the manifold Embla plate washer and dried at 60° C. for 45 min. MicroScint 20 scintillation fluid (30 μl) was added to each well for counting on the Packard TopCount. EC50 is defined as the agonist concentration that corresponds to 50% of the Ymax (maximal response) obtained for each individual compound tested. The results in Table B were rounded to two digits.

Assay [2] addresses S1P3 (membranes from EDG3-Ga15-bla HEK293T cells) (Homo sapiens (Human), UniProt Q99500). Description: Receptor [35S] GTPγS Binding Assay, S1P3. It counts as biochemical. To be noted: EDG3-Ga15-bla HEK293T cell membranes; rounded to two digits. Here is the method:
as §1, §2

Another assay concerns the target human S1P1 (Homo sapiens (Human), UniProt P21453). Description: S1P1 Binding Assay (33P-S1P radioligand competition). To be noted: membranes from CHO cells expressing human S1P1; 0.03 nM 33P-S1P; rounded to two digits. How it is done: Membranes were prepared from CHO cells expressing human S1P1. Cells pellets (1×10^8cells/pellet) were suspended in buffer containing 20 mM HEPES, pH 7.5, 50 mM NaCl, 2 mM EDTA and Protease Inhibitor cocktail (Roche), and disrupted on ice using the Polytron homogenizer. The homogenate was centrifuged at 20,000 rpm (48,000 g) and the supernatant was discarded. The membrane pellets were resuspended in buffer containing 50 mM HEPES, pH 7.5, 100 mM NaCl, 1 mM MgCl2, 2 mM EDTA and stored in aliquots at −80° C. after protein concentration determination.
Membranes (2 μg/well) and 0.03 nM final concentration of ^33P-S1P ligand (1 mCi/ml, American Radiolabeled Chemicals) diluted in assay buffer (50 mM HEPES, pH7.4, 5 mM MgCl2, 1 mM CaCl2, 0.5% fatty acid free BSA, 1 mM NaF) were added to the compound plates (384 Falcon v-bottom plate (0.5 μl/well in a 11 point, 3-fold dilution). Binding was performed for 45 minutes at room temperature, terminated by collecting the membranes onto 384-well Millipore FB filter plates, and radioactivity was measured by TopCount. The competition data of the test compounds over a range of concentrations was plotted as percentage inhibition of radioligand specific binding. The IC50 is defined as the concentration of competing ligand needed to reduce specific binding by 50%.

In assay [3] the test system is circulating blood lymphocytes. Put plainly: Blood Lymphocyte Reduction Assay (BLR) in Rodents. It counts as in vivo. The conditions noted are these: Lewis rats, oral, dose 1.0 mg/kg, versus vehicle (PEG300) group. Here is the method:
Blood Lymphocyte Reduction Assay (BLR) in Rodents
Lewis rats were dosed orally with test article (as a solution or suspension in the vehicle) or vehicle alone (polyethylene glycol 300, “PEG300”). Blood was drawn at 4 hr and 24 h by retro-orbital bleeding. Blood lymphocyte counts were determined on an ADVIA 120 Hematology Analyzer (Siemens Healthcare Diagnostics). The results were measured as a reduction in the percentage of circulating lymphocytes as compared to the vehicle treated group at the 4 hr and 24 hr measurement. The results represent the average results of all animals within each treatment group (n=3-4).

S1P3 (membranes from EDG3-Ga15-bla HEK293T cells), sequence (Q99500 whole entry): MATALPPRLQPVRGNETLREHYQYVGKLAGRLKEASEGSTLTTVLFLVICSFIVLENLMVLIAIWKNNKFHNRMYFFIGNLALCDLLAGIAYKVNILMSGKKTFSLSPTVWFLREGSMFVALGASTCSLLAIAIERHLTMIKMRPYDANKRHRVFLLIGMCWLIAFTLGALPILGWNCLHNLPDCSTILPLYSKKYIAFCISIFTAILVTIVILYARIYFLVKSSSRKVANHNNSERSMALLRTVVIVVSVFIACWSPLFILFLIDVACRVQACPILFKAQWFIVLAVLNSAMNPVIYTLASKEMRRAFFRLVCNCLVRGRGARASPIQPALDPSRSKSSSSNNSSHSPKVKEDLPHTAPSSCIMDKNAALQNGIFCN
human S1P1, sequence (P21453 whole entry): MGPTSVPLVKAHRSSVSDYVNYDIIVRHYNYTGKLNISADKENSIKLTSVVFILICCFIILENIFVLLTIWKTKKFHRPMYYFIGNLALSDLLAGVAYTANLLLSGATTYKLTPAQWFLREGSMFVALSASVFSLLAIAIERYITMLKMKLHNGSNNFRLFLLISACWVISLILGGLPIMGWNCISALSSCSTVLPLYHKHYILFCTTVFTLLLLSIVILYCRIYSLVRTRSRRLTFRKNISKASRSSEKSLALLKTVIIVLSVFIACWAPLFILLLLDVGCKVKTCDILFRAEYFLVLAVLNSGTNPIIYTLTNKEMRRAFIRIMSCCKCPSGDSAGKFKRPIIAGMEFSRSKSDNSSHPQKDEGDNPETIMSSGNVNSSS
S1P1 (membranes from S1P1/CHO cells), sequence (P21453 whole entry): as above

For the compound `O=C(O)C1CN(Cc2cc3c(cc2F)-c2noc(-c4onc(-c5ccccc5)c4C(F)(F)F)c2CC3)C1` [Example 67], the figures for the half-maximal effective concentration (EC50) in assay [1] and in assay [2] were 0.76 nM and 14700 nM, respectively. This compound also showed an IC50 on human S1P1 of 5.6 nM.

For the compound `CCCc1ccc(-c2onc3c2CCc2cc(OC[C@H](O)CO)ccc2-3)cc1` [Example 12, (R)-3-(3-(4-Propylphenyl)-4,5-dihydronaphtho[1,2-c]isoxazol-7-yloxy)propane-1,2-diol], the results for the EC50 in assay [1] and in assay [2] were 6300 nM and above 31000 nM, respectively. Also, the IC50 at human S1P1 came to 390 nM.

Regarding `CCCc1ccc(-c2onc3c2COc2cc(CN4CC(C(=O)O)C4)ccc2-3)cc1` [Example 2, 1-((3-(4-Propylphenyl)-4H-chromeno[4,3-c]isoxazol-7-yl)methyl)azetidine-3-carboxylic acid], the EC50 in assay [1] was 1.2 nM; in assay [2] it was 8200 nM. Moreover, in assay [3], the “% Reduction in Lymphocytes at 4 hr.” value was determined as 65%. On human S1P1, this compound had an IC50 of 1.2 nM.

In the case of `CC(C)Oc1ccc(-c2onc3c2CCc2cc(CNCCC(=O)O)ccc2-3)cc1C#N` [Example 16, 3-((3-(3-Cyano-4-isopropoxyphenyl)-4,5-dihydronaphtho[1,2-c]isoxazol-7-yl)methylamine)propanoic acid], the figures for the EC50 in assay [1] and in assay [2] were 24 nM and 11000 nM, respectively. The compound further gave an IC50 on human S1P1 of 24 nM.

Consider `O=C(O)C1CN(Cc2ccc3c(c2)CCc2c-3noc2-c2onc(-c3ccccc3)c2C(F)(F)F)C1` [Example 7, 1-((3-(3-Phenyl-4-(trifluoromethyl)isoxazol-5-yl)-4,5-dihydronaphtho[1,2-c]isoxazol-7-yl)methyl)azetidine-3-carboxylic acid], for which the figures for the EC50 in assay [1] and in assay [2] were 57 nM and above 31000 nM, respectively. Also, the IC50 on human S1P1 came out at 57 nM.

Take `O=C(O)C1CN(Cc2ccc3c(c2)CCc2c-3n[nH]c2-c2onc(-c3ccccc3)c2C(F)(F)F)C1` [Example 22, 1-((3-(3-Phenyl-4-(trifluoromethyl)isoxazol-5-yl)-4,5-dihydro-2H-benzo[g]indazol-7-yl)methyl)azetidine-3-carboxylic acid]: the EC50 was 980 nM in assay [1] and above 63000 nM in assay [2]. The compound also displayed an IC50 at human S1P1 of 980 nM.

Consider `O=C(O)C1CN(Cc2ccc3c(c2)CCc2c-3noc2-c2noc(-c3ccccc3)c2C(F)(F)F)C1` [Example 6, 1-((3-(5-Phenyl-4-(trifluoromethyl)isoxazol-3-yl)-4,5-dihydronaphtho[1,2-c]isoxazol-7-yl)methyl)azetidine-3-carboxylic acid], for which the EC50 is 0.59 nM in assay [1] and 4400 nM in assay [2]. For the same compound, the “% Reduction in Lymphocytes at 4 hr.” value in assay [3] is listed as 86%. Moreover, the IC50 on human S1P1 is 0.66 nM.

On to `O=C(O)C1CN(Cc2ccc3c(c2)OCc2c-3noc2-c2onc(-c3ccccc3)c2C(F)(F)F)C1` [Example 61, 1-((3-(3-phenyl-4-(trifluoromethyl)isoxazol-5-yl)-4H-chromeno[4,3-c]isoxazol-7-yl)methyl)-azetidine-3-carboxylic acid], for which the half-maximal effective concentration (EC50) was 0.32 nM in assay [1] and above 31000 nM in assay [2]. For the same compound, the IC50 on human S1P1 amounted to 1.6 nM.

As for `OCC1COCCN1Cc1ccc2c(c1)CCc1c-2noc1-c1noc(-c2ccccc2)c1C(F)(F)F` (stereo not drawn) [Example 74], the EC50 is 410 nM in assay [1] and above 63000 nM in assay [2]. At human S1P1, this compound yielded an IC50 of 600 nM.

Take `CC(N)(CCc1ccc2c(c1)CCc1c-2noc1-c1noc(-c2ccccc2)c1C(F)(F)F)C(=O)O` (single isomer, unassigned) [Example 94, 2-amino-2-methyl-4-(3-(5-phenyl-4-(trifluoromethyl)isoxazol-3-yl)-4,5-dihydronaphtho[1,2-c]isoxazol-7-yl)butanoic acid]: the values for the EC50 in assay [1] and in assay [2] were 12 nM and 16200 nM, respectively. The same compound yielded an IC50 on human S1P1 of 16 nM.

As to `CC(C)Cc1ccc(-c2onc3c2CCc2cc(O)ccc2-3)cc1` [Example 41, 3-(4-Isobutylphenyl)-4,5-dihydronaphtho[1,2-c]isoxazol-7-ol], the concentration for a half-maximal effect (EC50) was 1600 nM in assay [1] and above 63000 nM in assay [2]. Besides, the half-inhibitory concentration (IC50) at human S1P1 came to 1600 nM.

As to `CCCc1ccc(-c2noc3c2CCc2cc(CN4CC(C(=O)O)C4)ccc2-3)cc1` [Example 20, 1-((3-(4-Propylphenyl)-4,5-dihydronaphtho[2,1-d]isoxazol-7-yl)methyl)azetidine-3-carboxylic acid], the EC50 is 220 nM in assay [1] and above 31000 nM in assay [2]. The compound further yielded an IC50 at human S1P1 of 56 nM.

For `CC(C)Cc1onc(-c2onc3c2CCc2cc(CN4CC(C(=O)O)C4)ccc2-3)c1C(F)(F)F` [Example 5, 1-((3-(5-Isobutyl-4-(trifluoromethyl)isoxazol-3-yl)-4,5-dihydronaphtho[1,2-c]isoxazol-7-yl)methyl)azetidine-3-carboxylic acid], the concentration giving a half-maximal response (EC50) in assay [1] worked out at 0.74 nM; in assay [2], 1500 nM. In addition, the “% Reduction in Lymphocytes at 4 hr.” value in assay [3] was 83%. Moreover, the IC50 at human S1P1 is 0.57 nM.

Consider `CC(C)Oc1ccc(-c2onc3c2CCc2cc(CN4CC(C(=O)O)C4)ccc2-3)cc1C(F)(F)F` [Example 14, 1-((3-(4-Isopropoxy-3-(trifluoromethyl)phenyl)-4,5-dihydronaphtho[1,2-c]isoxazol-7-yl)methyl)azetidine-3-carboxylic acid], for which the values for the EC50 in assay [1] and in assay [2] were 11 nM and above 31000 nM, respectively. The same compound returned an IC50 on human S1P1 of 6.7 nM.

On to `CC(N)(CO)CCc1ccc2c(c1)CCc1c-2noc1-c1noc(-c2ccccc2)c1C(F)(F)F` (single isomer, unassigned) [Example 93, 2-amino-2-methyl-4-(3-(5-phenyl-4-(trifluoromethyl)isoxazol-3-yl)-4,5-dihydronaphtho[1,2-c]isoxazol-7-yl)butan-1-ol], for which the EC50 is 40 nM in assay [1] and above 63000 nM in assay [2]. The compound further showed an IC50 at human S1P1 of 22 nM.

In the case of `Oc1ccc2c(c1)CCc1c-2noc1-c1cc(-c2ccccc2Cl)n(-c2ccccc2)n1` [Example 33, 3-(5-(2-Chlorophenyl)-1-phenyl-1H-pyrazol-3-yl)-4,5-dihydronaphtho[1,2-c]isoxazol-7-ol], the EC50 in assay [1] was 250 nM; in assay [2] it was above 31000 nM. The IC50 at human S1P1 was determined as 250 nM.

For `O=C(O)[C@H]1CCCN(Cc2ccc3c(c2)CCc2c-3noc2-c2noc(-c3ccccc3)c2C(F)(F)F)C1` [Example 70, (3S)-1-((3-(5-Phenyl-4-(trifluoromethyl)isoxazol-3-yl)-4,5-dihydronaphtho[1,2-c]isoxazol-7-yl)methyl)piperidine-3-carboxylic acid], the EC50 stood at 49 nM in assay [1] and 4660 nM in assay [2]. The compound further returned an IC50 at human S1P1 of 22 nM.

Take `OCc1ccc2c(c1)CCc1c-2noc1-c1cccc(C(F)(F)F)c1` [Example 24, (3-(3-(Trifluoromethyl)phenyl)-4,5-dihydronaphtho[1,2-c]isoxazol-7-yl)methanol]: the results for the EC50 in assay [1] and in assay [2] were 3200 nM and above 31000 nM, respectively. On human S1P1, this compound yielded an IC50 of 3200 nM.

For the compound `Oc1ccc2c(c1)CCc1c-2noc1-c1cc(-c2ccccc2)on1` [Example 32, 3-(5-Phenylisoxazol-3-yl)-4,5-dihydronaphtho[1,2-c]isoxazol-7-ol], the values for the half-maximal effective concentration (EC50) in assay [1] and in assay [2] were 15000 nM and above 63000 nM, respectively. Also, the IC50 on human S1P1 is 15000 nM.

As to `N#CC1(NC(=O)[C@H](O)c2ccc3c(c2)CCc2c-3noc2-c2noc(-c3ccccc3)c2C(F)(F)F)CC1` (stereo in doubt) [Example 132, N-(1-cyanocyclopropyl)-2-hydroxy-2-(3-(5-phenyl-4-(trifluoromethyl)isoxazol-3-yl)-4,5-dihydronaphtho[1,2-c]isoxazol-7-yl)acetamide], the EC50 in assay [1] stood at 1.7 nM; in assay [2] it was 8500 nM. The compound also came in with an IC50 at human S1P1 of 4.1 nM.
